“And” between values parts separate entries of the source, which are not always exact repeats. Equal entries are not always repeated. Where two headings read alike, the source gives them in different places.

The test system of assay [1] is C2^GC03 parasites. In words: P. falciparum proliferation assay. Particulars: Plasmodium falciparum. It counts as cell-based. How it is done: (§1) Parasite proliferation was measured in 96-well plates using a fluorescent DNA-intercalating dye[68],[69]. Synchronous ring-stage parasite cultures (~1% haematocrit and 1% parasitaemia) were incubated with different concentrations of the test compound for 72 h at 37 °C and under reduced O2 conditions. The assay was terminated by freezing and thawing the samples, after which 100 μL of SYBR Safe DNA Gel Stain (Molecular Probes; 0.2 μL/mL) in a lysis buffer (20 mM Tris-HCl, 5 mM EDTA, 0.008% (w/v) saponin and 0.08% (v/v) Triton X-100; pH 7.5) was added to each well. The fluorescence from each well was measured using a Tecan Infinite M1000 PRO microplate reader (excitation wavelength 490 nm; emission wavelength 520 nm). The fluorescence values for the wells containing the highest concentration of the compound were averaged and this value was then subtracted from each of the well values obtained for that 96-well plate. The level of parasite proliferation in the presence of each compound concentration was expressed as a percentage of the proliferation measured in the absence of the compound. The IC50s were determined in SigmaPlot Windows Version 11.0 by a least-squares fit of the equation y = a/[1 + ([compound]/IC50)^c] to the data, where y is the percent parasite proliferation, a is the maximum change in the percent parasite proliferation, and c is a fitted constant. In all cases, five independent experiments were performed (on different days), and within each experiment measurements were averaged from three replicates.

In assay [2] the test system is C6^7G8 parasites. Kind of assay: P. falciparum proliferation assay. It counts as cell-based, Plasmodium falciparum. How it is done: as §1
The subject of assay [3] is 3D7 strain. Kind of assay: P. falciparum proliferation assay. It counts as cell-based, Plasmodium falciparum. How it is done: as §1
In assay [4] the test system is C4^Dd2 parasites. In words: P. falciparum proliferation assay. It counts as cell-based, Plasmodium falciparum. The protocol: as §1
Assay [5] has as its system 7G8 strain. Kind of assay: P. falciparum proliferation assay. It counts as cell-based, Plasmodium falciparum. The protocol:
as §1

Assay [6] deals with Dd2 strain. Kind of assay: P. falciparum proliferation assay. It counts as cell-based, Plasmodium falciparum. How it is done:
as §1

The subject of assay [7] is non-expressing oocytes. It counts as cell-based, Xenopus laevis. The protocol: (§2) Measurements of the cis-inhibition of [^3H]CQ transport via PfCRT^Dd2 or PfCRT^Ecu1110 by a test solute (data presented in Fig. 1 and Supplementary Data 1,2) were performed on oocytes three days post-cRNA-injection[15],[21]. Ten oocytes were washed twice with the relevant ND96 buffer. The assay commenced with the addition of ND96 buffer supplemented with 0.25 μM [^3H]CQ, 15 μM unlabelled CQ, and the unlabelled solute under study (at a concentration specified in the figure legends and Supplementary Data 1, 2). The assay was terminated by removing the reaction buffer and washing the oocytes with ice-cold ND96 buffer. The oocytes were lysed in 10% (w/v) sodium dodecyl sulfate (SDS) and the radioactivity accumulated within each oocyte was measured with a MicroBeta^2 microplate liquid scintillation analyser (PerkinElmer).
(§3) Measurements of the uptake or efflux of a number of other radiolabelled compounds (Fig. 3k; Supplementary Fig. 3) were performed using the methods described above for [^3H]CQ and [^3H]VF-6, respectively.

The target of assay [8] is T1, PfNT1 (Plasmodium falciparum, UniProt Q8IDM6).
T1 construct: expressed in transfected cells; host or cells: Xenopus laevis oocytes (stage V-VI), cRNA-injected
T1 sequence (Q8IDM6 whole entry): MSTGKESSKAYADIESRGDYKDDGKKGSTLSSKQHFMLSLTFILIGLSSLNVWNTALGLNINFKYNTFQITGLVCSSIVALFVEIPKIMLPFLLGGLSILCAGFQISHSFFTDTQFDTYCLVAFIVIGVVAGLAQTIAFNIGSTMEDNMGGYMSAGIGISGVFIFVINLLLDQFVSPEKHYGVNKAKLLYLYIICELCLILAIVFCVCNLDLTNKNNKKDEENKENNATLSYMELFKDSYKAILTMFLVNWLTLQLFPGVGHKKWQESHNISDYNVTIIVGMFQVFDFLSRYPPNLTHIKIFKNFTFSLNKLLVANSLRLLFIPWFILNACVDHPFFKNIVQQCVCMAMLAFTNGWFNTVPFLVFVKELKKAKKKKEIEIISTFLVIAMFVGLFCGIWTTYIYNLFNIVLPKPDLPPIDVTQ
It counts as cell-based. How it is done: as §2, §3

Where [9] appears, read: 72 h, read-out: IC50 (μM), parasite proliferation, + 1 μM VP, SEM.
[10] abbreviates: C2GC03, 72 h, 37 °C, SYBR Safe, mean ± SEM, n = 5, read-out: IC50 (μM), parasite proliferation, Control.
The mark [11] stands for this setting: Plasmodium falciparum, C67G8, 72 h, 37 °C, SYBR Safe, mean ± SEM, n = 5, read-out: IC50 (μM), parasite proliferation, Control.
The mark [12] stands for this setting: read-out: IC50 (μM), parasite proliferation, + 1 μM VP, C67G8, + 1 μM verapamil, 72 h, mean ± SEM, n = 5.
The mark [13] stands for this setting: Plasmodium falciparum, 3D7, 72 h, 37 °C, SYBR Safe, mean ± SEM, n = 5, read-out: IC50 (μM), parasite proliferation, Control.
The mark [14] stands for this setting: read-out: IC50 (μM), parasite proliferation, + 1 μM VP, SEM.
Where [15] appears, read: Plasmodium falciparum, DD2, C4Dd2, 72 h, 37 °C, SYBR Safe, mean ± SEM, n = 5, read-out: IC50 (μM), parasite proliferation, Control.
The mark [16] stands for this setting: Plasmodium falciparum, 72 h, read-out: IC50 (μM), parasite proliferation, Control, SEM.
Setting [17] is: read-out: IC50 (μM), parasite proliferation, + 1 μM VP, 7G8, + 1 μM verapamil, 72 h, mean ± SEM, n = 5.

With `CC(C)(C)NC(=O)[C@@H]1CN(Cc2cccnc2)CCN1C[C@@H](O)C[C@@H](Cc1ccccc1)C(=O)N[C@H]1c2ccccc2C[C@H]1O` [Indinavir, indinavir], the IC50 in assay [1] (setting [9]) was 1.2 ± 0.8 µM; in assay [1] (setting [10]), 4.2 ± 0.2 µM; in assay [2] (setting [11]), 1.1 ± 0.05 µM; in assay [2] (setting [12]), 0.4 ± 0.02 µM; in assay [3] (setting [13]) it was 4.1 ± 0.1 µM; in assay [3] (setting [14]) it was 2.1 ± 0.8 µM. For the same molecule, the figures for the IC50 in assay [4] (setting [15]), in assay [5] (setting [16]) and in assay [5] (setting [17]) were 2.2 ± 0.1 µM, 2.5 ± 0.2 µM and 0.5 ± 0.06 µM, respectively.

With `Cc1c(O)cccc1C(=O)N[C@@H](CSc1ccccc1)[C@H](O)CN1C[C@H]2CCCC[C@H]2C[C@H]1C(=O)NC(C)(C)C` [Nelfinavir, nelfinavir], the IC50 is 4.6 ± 0.3 µM in assay [1] (setting [9]); 13.1 ± 0.8 µM in assay [1] (setting [10]); 6.2 ± 0.3 µM in assay [2] (setting [11]); 1.4 ± 0.1 µM in assay [2] (setting [12]); 5.7 ± 0.5 µM in assay [6] (Plasmodium falciparum, DD2, 72 h, read-out: IC50 (μM), parasite proliferation, Control, SEM); 0.5 ± 0.02 µM in assay [6] (read-out: IC50 (μM), parasite proliferation, + 1 μM VP, Dd2, + 1 μM verapamil, 72 h, mean ± SEM, n = 5). Further, the IC50 in assay [3] (setting [13]) was determined as 15.3 ± 1.2 µM; in assay [3] (setting [14]) it was 5.6 ± 0.8 µM; in assay [4] (setting [15]), 4.1 ± 0.1 µM; in assay [4] (read-out: IC50 (μM), parasite proliferation, + 1 μM VP, C4Dd2, + 1 μM verapamil, 72 h, mean ± SEM, n = 5), 0.7 ± 0.03 µM; in assay [5] (setting [16]) it was 7.3 ± 0.6 µM; in assay [5] (setting [17]), 3.1 ± 0.3 µM.

Take `O=c1[nH]cnc2nc[nH]c12` [[3H]hypoxanthine]: the “[3H]hypoxanthine transport into the oocyte, non-expressing oocytes” value in assay [7] is 12.63 % PfNT1 and 13.63 % PfNT1 and 15.33 % PfNT1 and 10.43 % PfNT1 and 11.43 % PfNT1. Moreover, the “[3H]hypoxanthine transport into the oocyte, PfNT1” value in assay [8] was found to be 100 % PfNT1.

The record behind these values is article PMC7413254 (Nature Communications, 2020).
